The values below come from US9687499B2, “Method using heat shock protein inhibitor for treating hepatitis and hepatoma” (National Tsing Hua University, priority 2014, dated 2017).

Each structure is given as a SMILES string.

One data set deals with liver cell line Pre-S2. In words: Toxicity to liver cells, Pre-S2 cell line. It counts as cell-based.
Data set [1] concerns hepatitis B virus. Briefly: HBsAg in blood serum of AdHBV-infected mice. It counts as in vivo. The settings on record: intravenous, 20 mg/ml, FIG. 4a. On the procedure: Intravenous injection of […] and Pifithrin-μ can successfully reduce the hepatitis B surface antigen (HBsAg) in the blood serum of mice, wherein the mice are continuously infected by hepatitis B virus in an adenovirus genome transfer technology (AdHBV). Each group has three mice. The experiment design is as follows: inject AdHBV into mice continuously for 28 days; respectively inject a mock medication, 20 mg/ml […], and 20 mg/ml Pifithrin-μ into the mice intravenously; collect the samples of the blood serum and livers for serological and pathological analyses.

Data set [2] can be described thus: Liver function test (GPT) in mice. It counts as in vivo. The settings on record: FIG. 4b. From the text: GPT (Glutamate Pyruvate Transaminase) is used to monitor the liver function of the mice.
A further data set concerns liver cell line WT. Briefly: Toxicity to liver cells, WT cell line.
The test system of a further data set is liver cell line SNAP. In words: Toxicity to liver cells, SNAP cell line.
Data set [3] relates to hepatitis B virus. In words: HBsAg-positive liver cells in liver sections of mice. To be noted: month-long treatment, FIG. 5b.
Data set [4] has as its system LHBs-positive cells (SNAP cells 505) expressing HBV-LHBs. Briefly: Selective cytotoxicity in co-culture, LHBs-positive cells. It counts as cell-based. To be noted: 40 μM. As to the method: With elapse of time, use a microscope to observe the selective cytotoxicity of VER-155008 to the cells expressing HBV-LHBs (hepatitis B virus large S protein). The LHBs-positive cells (SNAP cells 505) are labeled by green fluorescence and co-cultured with unlabeled parental NeHepLxHT. The group of the mixed cells is processed with 40 μM VER-155008 and then periodically recorded at time points separated by a longer interval of time for 48 hours. The observed cellular quantities of the unlabeled cells (parental cells) and the green-labeled cells (LHBs-infected cells) are used to reveal typical cellular apoptosis.

The next data set has as its system parental NeHepLxHT. Briefly: Selective cytotoxicity in co-culture, parental cells. The data set is classed as cell-based. The settings on record: 40 μM, 24 hours, FIG. 3b. On the procedure:
[…]. The LHBs-positive cells (SNAP cells 505) are labeled by green fluorescence and co-cultured with unlabeled parental NeHepLxHT. The group of the mixed cells is processed with 40 μM VER-155008 and then periodically recorded at time points separated by a longer interval of time for 48 hours. The observed cellular quantities of the unlabeled cells (parental cells) and the green-labeled cells (LHBs-infected cells) are used to reveal typical cellular apoptosis. […].

Another data set addresses HSP90 (Homo sapiens, UniProt P08238). To be noted: selectivity over HSP90; cited from earlier work.

HSP90, sequence (P08238 whole entry, species assumed): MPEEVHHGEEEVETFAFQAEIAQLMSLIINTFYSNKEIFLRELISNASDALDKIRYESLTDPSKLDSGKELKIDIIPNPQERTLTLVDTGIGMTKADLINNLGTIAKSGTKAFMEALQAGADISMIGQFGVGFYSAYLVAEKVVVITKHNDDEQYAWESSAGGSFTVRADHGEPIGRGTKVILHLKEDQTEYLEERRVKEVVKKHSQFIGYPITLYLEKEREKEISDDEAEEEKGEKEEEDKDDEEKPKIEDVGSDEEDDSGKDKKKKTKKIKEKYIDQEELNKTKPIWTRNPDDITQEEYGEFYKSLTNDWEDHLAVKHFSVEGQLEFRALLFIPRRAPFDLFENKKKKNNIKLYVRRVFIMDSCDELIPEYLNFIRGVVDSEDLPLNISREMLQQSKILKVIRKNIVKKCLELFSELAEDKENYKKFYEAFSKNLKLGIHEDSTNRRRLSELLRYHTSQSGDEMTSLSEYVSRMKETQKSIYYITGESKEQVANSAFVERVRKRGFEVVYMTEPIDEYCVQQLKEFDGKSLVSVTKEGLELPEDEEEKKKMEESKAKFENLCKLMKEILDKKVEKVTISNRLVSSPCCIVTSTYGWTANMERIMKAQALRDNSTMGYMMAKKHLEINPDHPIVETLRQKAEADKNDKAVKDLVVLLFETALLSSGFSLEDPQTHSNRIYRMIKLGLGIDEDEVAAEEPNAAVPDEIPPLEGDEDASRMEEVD

Consider `NS(=O)(=O)C#Cc1ccccc1` [Pifithrin-μ, 2-Phenylethynesulfonamide], for which the figures for the IC50 in the data set with liver cell line Pre-S2, in the data set with liver cell line WT and in the data set on liver cell line SNAP were 11.8 µM, 12.2 µM and 17.5 µM, respectively. For the same compound, in the data set on hepatitis B virus [1], the “levels of HBsAg in the blood serums” value is recorded as “obviously reduced”. Besides, the “levels of GPT in the blood serums” value in data set [2] is recorded as “do not vary obviously”. Moreover, the HBcAg-positive liver cells entry with hepatitis B virus [3] (high dosage (40 mg/Kg)) is recorded as “kill a portion of the HBcAg-positive liver cells”.
With `N#Cc1ccc(COC[C@H]2O[C@@H](n3c(NCc4ccc(Cl)c(Cl)c4)nc4c(N)ncnc43)[C@H](O)[C@@H]2O)cc1` [VER-155008, 5′-O-[(4-Cyanophenyl)methyl]-8-[[(3,4-dichlorophenyl)methyl]amino]-adenosine], the IC50 in the data set on liver cell line Pre-S2 was found to be 18.8 µM; in the data set on liver cell line WT it was 18 µM; in the data set with liver cell line SNAP, 36.2 µM. Moreover, the “death of LHBs-positive cells” value in [4] (24 hours, FIG. 3b) is “many of the LHBs-positive cells are dead”. Further, in data set [4] (48 hours, FIG. 3c), the “death of LHBs-infected cells” value was “almost all die”. Besides, the “survival of parental cells” value with parental NeHepLxHT is “still alive”. In the data set on hepatitis B virus [1], the “levels of HBsAg in the blood serums” value is “obviously reduced”. Besides, in data set [2], the “levels of GPT in the blood serums” value is given as “do not vary obviously”. Moreover, on HSP90, the “effect to HSP70 and GRP78 relative to effect to HSP90” value is “over 100 times”. The HBsAg-positive liver cells result with hepatitis B virus [3] (low dosage (20 mg/Kg) and high dosage (40 mg/Kg)) is recorded as “different effects in decreasing the HBsAg-positive liver cells”.

Broadly, the IC50 is the point on the concentration scale where inhibition reaches its midpoint.
